Assay results from the supplement of paper PMC11208160.

Experiment: recombinant UMI read abundance after kanamycin selection (control-corrected) (log10(CPM+1)); higher = more efficient recombination; extreme values may be limits of the assay; sequences stand for … in AGTGCAGAGAAAATCGGCCAGTTTTCTCTGCCTGCAGTCCGCATGCCGTGGGACCCCTTGGGTTCTAACCTGTTGCCTAGATTTATGCAGCGGACTGCCTTTCTCCCAAAGTGATAAACCGG…AGGTTGGTTTCACT; site = the 11-nt donor
Outline: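 Two replicates each of selected and unselected plating were used in this pooled Escherichia coli screen of donor and donor-binding-loop pairs for the IS621 bridge recombinase. Selection was with IPTG (0.07 mM) and kanamycin. Counts of recombinant UMIs, amplified across the donor–target junction, were converted to CPM, averaged, scaled by control-derived factors and reported as log10(CPM+1).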
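Note: IS621 bridge recombinase in Escherichia coli cells against a fixed T5 target plasmid.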

Row | Sequence | recombinant UMI read abundance (log10)
1 | CAATGGCCATGGACCGGTTTTCCCGGTAATCCGTATTTGCA (site CAATGGCCTTG) | 0.253
2 | CAATGGCCATGGACCGGTTTTCCCGGTAATCCGTATTTGCA (site GAATGGCCTTG) | 0
3 | CAATGGCCATGGACCGGTTTTCCCGGTAATCCGTATTTGCA (site TAATGGCCTTG) | 0.198
4 | CAATTACCATGGACCGGTTTTCCCGGTAATCCGTATTTGCT (site CAATTACCTAG) | 0
5 | CAATTACCATGGACCGGTTTTCCCGGTAATCCGTATTTGCT (site CAATTCCCTAG) | 0
6 | CAATTACCATGGACCGGTTTTCCCGGTAATCCGTATTTGCT (site CAATTGCCTAG) | 0
7 | CAATTACCATGGACCGGTTTTCCCGGTAATCCGTATTTGCT (site CAATTTCCTAG) | 0
8 | CAATTCCCATGGACCGGTTTTCCCGGTAATCCGTATTTGTT (site CAATTCCCTAA) | 1.71
9 | CAATTCCCATGGACCGGTTTTCCCGGTAATCCGTATTTGTT (site CAATTCCCTAC) | 0.942
10 | CAATTCCCATGGACCGGTTTTCCCGGTAATCCGTATTTGTT (site CAATTCCCTAG) | 1.41
11 | CAATTCCCATGGACCGGTTTTCCCGGTAATCCGTATTTGTT (site CAATTCCCTAT) | 1.15
12 | CAATTGACATGGACCGGTTTTCCCGGTAATCCGTATTTGCG (site CAATTGACTCG) | 2.58
13 | CAATTGGCATGGACCGGTTTTCCCGGTAATCCGTATTTGGA (site CAATTGGCTTC) | 0.902
14 | CAATTGGCATGGACCGGTTTTCCCGGTAATCCGTATTTGGA (site CACTTGGCTTC) | 0.0126
15 | CAATTGGCATGGACCGGTTTTCCCGGTAATCCGTATTTGGA (site CAGTTGGCTTC) | 0.585
16 | CAATTGGCATGGACCGGTTTTCCCGGTAATCCGTATTTGGA (site CATTTGGCTTC) | 0.313

Row | Sequence | recombinant UMI read abundance (log10)
17 | CACACAACATGGACCGGTTTTCCCGGTAATCCGTATTTGAA (site CACACAACTTT) | 1.84
18 | CACACGGCATGGACCGGTTTTCCCGGTAATCCGTATTTGAG (site CACACGGCTCT) | 1.83
19 | CACAGGGCATGGACCGGTTTTCCCGGTAATCCGTATTTGAG (site CACAGGGCTCT) | 1.97
20 | CACATATCATGGACCGGTTTTCCCGGTAATCCGTATTTGTC (site CACATATCTGA) | 1.5
21 | CACATATCATGGACCGGTTTTCCCGGTAATCCGTATTTGTC (site CCCATATCTGA) | 0.724
22 | CACATATCATGGACCGGTTTTCCCGGTAATCCGTATTTGTC (site CGCATATCTGA) | 0.92
23 | CACATATCATGGACCGGTTTTCCCGGTAATCCGTATTTGTC (site CTCATATCTGA) | 0
24 | CACATCCCATGGACCGGTTTTCCCGGTAATCCGTATTTGCA (site CACATCCCTTG) | 2
25 | CACCGTTCATGGACCGGTTTTCCCGGTAATCCGTATTTGTG (site CACCGTTCTCA) | 1.9
26 | CACCTGCCATGGACCGGTTTTCCCGGTAATCCGTATTTGAC (site CACCTGCCTGT) | 0
27 | CACGCCCCATGGACCGGTTTTCCCGGTAATCCGTATTTGTT (site CACGACCCTAA) | 0.0224
28 | CACGCCCCATGGACCGGTTTTCCCGGTAATCCGTATTTGTT (site CACGCCCCTAA) | 0.348
29 | CACGCCCCATGGACCGGTTTTCCCGGTAATCCGTATTTGTT (site CACGGCCCTAA) | 0
30 | CACGCCCCATGGACCGGTTTTCCCGGTAATCCGTATTTGTT (site CACGTCCCTAA) | 0.0223
31 | CACGCCTCATGGACCGGTTTTCCCGGTAATCCGTATTTGCC (site CACACCTCTGG) | 2.73
32 | CACGCCTCATGGACCGGTTTTCCCGGTAATCCGTATTTGCC (site CACCCCTCTGG) | 1.65
